Experimental findings from US20240050428A1 (Cullgen (Shanghai), Inc., priority 2020, published 2024) are described below.

One assay relates to MOLM-13 cells. As to the kind of experiment: Cell viability assay (CellTiter-Glo) in MOLM-13 cells, alone or with gilteritinib. Format: cell-based. (In general: Cellular ATP, detected with luciferase, serves as a proxy for viable cell number.)
Another assay relates to MV4;11 cells. As to the kind of experiment: Cell viability assay (CellTiter-Glo) in MV4;11 cells, alone or with gilteritinib. In kind it is cell-based. Conditions: read-out: MV4.
[1] abbreviates: Homo sapiens, MOLM-13, 72 h, MOLM-13 cells, with 20 nM gilteritinib, 3 days, CellTiter-Glo, read-out: MOLM-13 IC50 gilteritinib.
[2] abbreviates: Homo sapiens, MOLM-13, 72 h, MOLM-13 cells, without gilteritinib, 3 days, CellTiter-Glo, read-out: MOLM-13 IC50.
Where [3] appears, read: Homo sapiens, MV4-11, 72 h, MV4;11 cells, with 10 nM gilteritinib, 3 days, CellTiter-Glo, 11 IC50 gilteritinib.
The mark [4] stands for this setting: Homo sapiens, MV4-11, 72 h, MV4;11 cells, without gilteritinib, 3 days, CellTiter-Glo, 11 IC50.
Setting [5] is: Homo sapiens, MOLM-13, 72 h, read-out: MOLM-13 IC50.
[6] abbreviates: Homo sapiens, MOLM-13, 72 h, read-out: MOLM-13 IC50 gilteritinib.
Where [7] appears, read: Homo sapiens, MV4-11, 72 h, 11 IC50.
Setting [8] is: Homo sapiens, MV4-11, 72 h, 11 IC50 gilteritinib.

The structures appear in SMILES notation. Read-outs that look alike come from different tables or passages of the source.

Regarding `O=C1CCC(N2C(=O)c3ccc(NCCCN4CC(N5CCN(c6ccccn6)CC5)C4)cc3C2=O)C(=O)N1` (centres unmarked), the IC50 in the assay on MOLM-13 cells (Homo sapiens, 72 h, MOLM-13 cells, compound alone (without gilteritinib), three days, CellTiter-Glo, read-out: MOLM-13 IC50) was > 1 µM; in the assay with MOLM-13 cells (Homo sapiens, 72 h, MOLM-13 cells, with gilteritinib 20 nM, three days, CellTiter-Glo, read-out: MOLM-13 IC50 gilteritinib) it was 0.01 to 0.1 µM; in the assay with MV4;11 cells (Homo sapiens, 72 h, MV4;11 cells, compound alone (without gilteritinib), three days, CellTiter-Glo, 11 IC50), > 1 µM; in the assay on MV4;11 cells (Homo sapiens, 72 h, MV4;11 cells, with gilteritinib 10 nM, three days, CellTiter-Glo, 11 IC50 gilteritinib), > 1 µM.

Regarding `O=C1CCC(N2Cc3cc(CNC(=O)C(F)(F)c4ccc(Cl)cc4)ccc3C2=O)C(=O)N1` (centres unmarked) [CC-90009, reference compound], the IC50 in the assay with MOLM-13 cells (MOLM-13 cells, with 20 nM gilteritinib, 3 days, CellTiter-Glo, read-out: MOLM-13 IC50 gilteritinib) came to 0.0086 µM; in the assay with MOLM-13 cells (MOLM-13 cells, without gilteritinib, 3 days, CellTiter-Glo, read-out: MOLM-13 IC50), 0.103 µM; with MV4;11 cells (MV4;11 cells, with 10 nM gilteritinib, 3 days, CellTiter-Glo, 11 IC50 gilteritinib), 0.0071 µM; in the assay on MV4;11 cells (MV4;11 cells, without gilteritinib, 3 days, CellTiter-Glo, 11 IC50), 0.054 µM.

Turning to `O=C1CCC(N2C(=O)c3ccc(NCCCCCC(=O)N4CCCCC4)cc3C2=O)C(=O)N1` (centres unmarked) [GS-001, 2-(2,6-Dioxopiperidin-3-yl)-5-((6-oxo-6-(piperidin-1-yl)hexyl)amino)isoindoline-1,3-dione], the IC50 in the assay with MOLM-13 cells (setting [1]) is 0.027 µM; in the assay with MOLM-13 cells (setting [2]), 0.301 µM; with MV4;11 cells (setting [3]), > 10 µM; in the assay on MV4;11 cells (setting [4]), 4.74 µM.

`O=C1CCC(N2C(=O)c3ccc(NCCCCCC(=O)N4CCC(n5cccn5)CC4)cc3C2=O)C(=O)N1` (centres unmarked) [GS-003, 5-((6-(4-(1H-Pyrazol-1-yl)piperidin-1-yl)-6-oxohexyl)amino)-2-(2,6-dioxopiperidin-3-yl)isoindoline-1,3-dione]: the IC50 was 0.103 µM in the assay on MOLM-13 cells (setting [1]), > 10 µM with MOLM-13 cells (setting [2]), 0.191 µM in the assay with MV4;11 cells (setting [3]) and > 10 µM in the assay on MV4;11 cells (setting [4]).

Regarding `O=C1CCC(N2Cc3cc(CNC(=O)C(F)(F)c4cccc(N5CCC(n6cc(-c7cnc8cccc(Br)c8n7)cn6)CC5)c4)ccc3C2=O)C(=O)N1` (centres unmarked) [GS-004, 2-(3-(4-(4-(8-bromoquinoxalin-2-yl)-1H-pyrazol-1-yl)piperidin-1-yl)phenyl)-N-((2-(2,6-dioxopiperidin-3-yl)-1-oxoisoindolin-5-yl)methyl)-2,2-difluoroacetamide], the IC50 in the assay on MOLM-13 cells (setting [1]) amounted to 0.0002 µM; in the assay on MOLM-13 cells (setting [2]), 0.0021 µM; in the assay with MV4;11 cells (setting [3]), 0.0005 µM; in the assay on MV4;11 cells (setting [4]) it was 0.0013 µM.

For `O=C1CCC(N2Cc3cc(CNC(=O)C(F)(F)CCC(=O)N4CCC(n5cc(-c6cnc7cccc(Br)c7n6)cn5)CC4)ccc3C2=O)C(=O)N1` (centres unmarked) [GS-007, 5-(4-(4-(8-bromoquinoxalin-2-yl)-1H-pyrazol-1-yl)piperidin-1-yl)-N-((2-(2,6-dioxopiperidin-3-yl)-1-oxoisoindolin-5-yl)methyl)-2,2-difluoro-5-oxopentanamide], the IC50 in the assay with MOLM-13 cells (setting [1]) is 0.032 µM; in the assay on MOLM-13 cells (setting [2]), 0.179 µM; in the assay on MV4;11 cells (setting [3]), 0.0099 µM; in the assay with MV4;11 cells (setting [4]), 0.17 µM.

Regarding `O=C1CCC(N2C(=O)c3ccc(NCCCCCC(=O)N4CCC(n5cc(C6CNc7ccccc7N6)cn5)CC4)cc3C2=O)C(=O)N1` (centres unmarked) [GS-008, 2-(2,6-Dioxopiperidin-3-yl)-5-((6-oxo-6-(4-(4-(1,2,3,4-tetrahydroquinoxalin-2-yl)-1H-pyrazol-1-yl)piperidin-1-yl)hexyl)amino)isoindoline-1,3-dione], the IC50 in the assay with MOLM-13 cells (setting [1]) amounted to 0.014 µM; in the assay with MOLM-13 cells (setting [2]), 0.078 µM; with MV4;11 cells (setting [3]), 0.027 µM; in the assay on MV4;11 cells (setting [4]), 0.449 µM.

With `O=C1CCC(N2C(=O)c3ccc(NCCCCCC(=O)N4CCC(n5cc(-c6cnccn6)cn5)CC4)cc3C2=O)C(=O)N1` (centres unmarked) [GS-009, 2-(2,6-Dioxopiperidin-3-yl)-5-((6-oxo-6-(4-(4-(pyrazin-2-yl)-1H-pyrazol-1-yl)piperidin-1-yl)hexyl)amino)isoindoline-1,3-dione], the IC50 is 0.018 µM with MOLM-13 cells (setting [1]), 0.035 µM in the assay on MOLM-13 cells (setting [2]), 0.022 µM in the assay on MV4;11 cells (setting [3]) and 0.296 µM in the assay on MV4;11 cells (setting [4]).

For the compound `O=C1CCC(N2C(=O)c3ccc(NCCCCCC(=O)N4CCC(c5ccccc5)CC4)cc3C2=O)C(=O)N1` (centres unmarked) [GS-010, 2-(2,6-Dioxopiperidin-3-yl)-5-((6-oxo-6-(4-phenylpiperidin-1-yl)hexyl)amino)isoindoline-1,3-dione], the IC50 with MOLM-13 cells (setting [5]) came out at 0.003 µM; in the assay with MOLM-13 cells (setting [6]), 0.0003 µM; in the assay on MV4;11 cells (setting [7]), 0.017 µM; with MV4;11 cells (setting [8]), 0.0023 µM.

On to `O=C1CCC(N2C(=O)c3ccc(NCCCCCC(=O)N4CCC(N5CCOCC5)CC4)cc3C2=O)C(=O)N1` (centres unmarked) [GS-011, 2-(2,6-Dioxopiperidin-3-yl)-5-((6-(4-morpholinopiperidin-1-yl)-6-oxohexyl)amino)isoindoline-1,3-dione], for which the IC50 with MOLM-13 cells (setting [1]) is 0.27 µM; with MOLM-13 cells (setting [2]), > 10 µM; in the assay on MV4;11 cells (setting [3]), > 10 µM; in the assay with MV4;11 cells (setting [4]) it was > 10 µM.

For `O=C1CCC(N2C(=O)c3ccc(NCCCCCC(=O)N4CCC(N5CCCCC5)CC4)cc3C2=O)C(=O)N1` (centres unmarked) [GS-012, 5-((6-([1,4′-Bipiperidin]-1′-yl)-6-oxohexyl)amino)-2-(2,6-dioxopiperidin-3-yl)isoindoline-1,3-dione], the IC50 is 0.312 µM in the assay on MOLM-13 cells (setting [1]), > 10 µM in the assay with MOLM-13 cells (setting [2]), > 10 µM in the assay with MV4;11 cells (setting [3]) and > 10 µM with MV4;11 cells (setting [4]).

As for `CN1CCN(C2CCN(C(=O)CCCCCNc3ccc4c(c3)C(=O)N(C3CCC(=O)NC3=O)C4=O)CC2)CC1` (centres unmarked) [GS-013, 2-(2,6-Dioxopiperidin-3-yl)-5-((6-(4-(4-methylpiperazin-1-yl)piperidin-1-yl)-6-oxohexyl)amino)isoindoline-1,3-dione], the IC50 in the assay with MOLM-13 cells (setting [1]) is 1.85 µM; with MOLM-13 cells (setting [2]) it was > 10 µM; with MV4;11 cells (setting [3]) it was > 10 µM; with MV4;11 cells (setting [4]) it was > 10 µM.

With `O=C1CCC(N2C(=O)c3ccc(NCCCCCC(=O)N4CCC(c5ncccn5)CC4)cc3C2=O)C(=O)N1` (centres unmarked) [GS-014, 2-(2,6-Dioxopiperidin-3-yl)-5-((6-oxo-6-(4-(pyrimidin-2-yl)piperidin-1-yl)hexyl)amino)isoindoline-1,3-dione], the IC50 in the assay on MOLM-13 cells (setting [1]) is 0.01 µM; with MOLM-13 cells (setting [2]), 0.107 µM; in the assay with MV4;11 cells (setting [3]) it was 0.0083 µM; in the assay with MV4;11 cells (setting [4]) it was 0.071 µM.

On to `O=C1CCC(N2C(=O)c3ccc(NCCCCCC(=O)N4CCC(N5CCC(c6cnc7ccccc7n6)C5)CC4)cc3C2=O)C(=O)N1` (centres unmarked) [GS-015, 2-(2,6-Dioxopiperidin-3-yl)-5-((6-oxo-6-(4-(3-(quinoxalin-2-yl)pyrrolidin-1-yl)piperidin-1-yl)hexyl)amino)isoindoline-1,3-dione], for which the IC50 is 0.03 µM in the assay with MOLM-13 cells (setting [1]), > 10 µM in the assay with MOLM-13 cells (setting [2]), 2.78 µM in the assay on MV4;11 cells (setting [3]) and > 10 µM with MV4;11 cells (setting [4]).

`Cc1ccccc1C(=O)N1CCN(C(=O)CCCCCNc2ccc3c(c2)C(=O)N(C2CCC(=O)NC2=O)C3=O)CC1` (centres unmarked) [GS-016, 2-(2,6-Dioxopiperidin-3-yl)-5-((6-(4-(2-methylbenzoyl)piperazin-1-yl)-6-oxohexyl)amino)isoindoline-1,3-dione]: the IC50 in the assay on MOLM-13 cells (setting [1]) is 0.086 µM; in the assay with MOLM-13 cells (setting [2]) it was > 10 µM; in the assay with MV4;11 cells (setting [3]), > 10 µM; with MV4;11 cells (setting [4]), > 10 µM.

On to `O=C1CCC(N2C(=O)c3ccc(NCCCCCC(=O)N4CCC(c5ccccn5)CC4)cc3C2=O)C(=O)N1` (centres unmarked) [GS-017, 2-(2,6-Dioxopiperidin-3-yl)-5-((6-oxo-6-(4-(pyridin-2-yl)piperidin-1-yl)hexyl)amino)isoindoline-1,3-dione], for which the IC50 in the assay on MOLM-13 cells (setting [1]) worked out at 0.002 µM; in the assay on MOLM-13 cells (setting [2]), 0.03 µM; in the assay with MV4;11 cells (setting [3]), 0.002 µM; with MV4;11 cells (setting [4]) it was 0.02 µM.

As for `O=C1CCC(N2Cc3cc(OCCOCCC(=O)N4CCC(n5cc(-c6cnc7cccc(Br)c7n6)cn5)CC4)ccc3C2=O)C(=O)N1` (centres unmarked) [GS-018, 3-(5-(2-(3-(4-(4-(8-Bromoquinoxalin-2-yl)-1H-pyrazol-1-yl)piperidin-1-yl)-3-oxopropoxy)ethoxy)-1-oxoisoindolin-2-yl)piperidine-2,6-dione], the IC50 is 0.0016 µM in the assay on MOLM-13 cells (setting [1]), 0.0156 µM in the assay with MOLM-13 cells (setting [2]), 0.0009 µM in the assay on MV4;11 cells (setting [3]) and 0.0087 µM in the assay with MV4;11 cells (setting [4]).

As to `O=C1CCC(N2C(=O)c3ccc(NCCCCCC(=O)N4CCN(c5ccccn5)CC4)cc3C2=O)C(=O)N1` (centres unmarked) [GS-019, 2-(2,6-Dioxopiperidin-3-yl)-5-((6-oxo-6-(4-(pyridin-2-yl)piperazin-1-yl)hexyl)amino)isoindoline-1,3-dione], the IC50 in the assay with MOLM-13 cells (setting [5]) amounted to 0.146 µM; with MOLM-13 cells (setting [6]) it was 0.007 µM; in the assay with MV4;11 cells (setting [7]) it was 0.162 µM; in the assay with MV4;11 cells (setting [8]), 0.0094 µM.

Consider `O=C1CCC(N2Cc3cc(NC(=O)CCCCC(=O)N4CCC(n5cc(-c6cnc7cccc(Br)c7n6)cn5)CC4)ccc3C2=O)C(=O)N1` (centres unmarked) [GS-020, 6-(4-(4-(8-Bromoquinoxalin-2-yl)-1H-pyrazol-1-yl)piperidin-1-yl)-N-(2-(2,6-dioxopiperidin-3-yl)-1-oxoisoindolin-5-yl)-6-oxohexanamide], for which the IC50 in the assay with MOLM-13 cells (setting [1]) is 0.011 µM; in the assay on MOLM-13 cells (setting [2]), 0.087 µM; with MV4;11 cells (setting [3]), 0.003 µM; with MV4;11 cells (setting [4]) it was 0.029 µM.

As to `O=C(CCCC(=O)N1CCC(n2cc(-c3cnc4cccc(Br)c4n3)cn2)CC1)NCc1ccc2c(c1)CN(C1CCC(=O)NC1=O)C2=O` (centres unmarked) [GS-021, 5-(4-(4-(8-Bromoquinoxalin-2-yl)-1H-pyrazol-1-yl)piperidin-1-yl)-N-((2-(2,6-dioxopiperidin-3-yl)-1-oxoisoindolin-5-yl)methyl)-5-oxopentanamide], the IC50 in the assay with MOLM-13 cells (setting [1]) turned out to be 0.111 µM; in the assay with MOLM-13 cells (setting [2]), 0.082 µM; with MV4;11 cells (setting [3]) it was 0.044 µM; in the assay on MV4;11 cells (setting [4]), 3.13 µM.
